Strand notation (5' to 3'): a small letter for the sugar, then the base; units joined by * are phosphorothioate-linked, units joined directly phosphodiester-linked; [ ] holds rarer units or linkages, { } end groups; capitals alone tell only the bases. k = constrained ethyl (cEt); [5mC] = 5-methylcytosine; d = 2'-deoxy (DNA)
system: Yap1 mRNA; experiment: Antisense inhibition of human Yap1 in A-431 cells by cEt gapmers, single dose (Example 2, RTS4814); type: cell-based; conditions: A-431 cells, 5,000 cells per well, free uptake, 2,000 nM modified oligonucleotide, approx. 48 hours, RTS4814, normalized to RIBOGREEN; Table 4; asterisk (*) = targets amplicon region of primer probe set
Summary of the method: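 A-431 cells (5,000/well) took up 2,000 nM 3-10-3 cEt gapmer by free uptake for ~48 h. Yap1 mRNA was quantified by qRT-PCR with primer probe set RTS4814, normalized to RIBOGREEN total RNA, and reported as % of untreated control.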

| Substance | YAP1 (% UTC) |
| --- | --- |
| 716550 (kG*k[5mC]*kA*d[5mC]*dT*dG*dA*dA*dT*dA*dT*dT*dG*k[5mC]*k[5mC]*kA; antisense) [Compound 716550] | 77 |
| 716385 (kT*kT*k[5mC]*d[5mC]*d[5mC]*dA*dT*d[5mC]*d[5mC]*dA*dT*d[5mC]*dA*kG*kG*kA; antisense) [Compound 716385] | 87 |
| 716364 (k[5mC]*kG*k[5mC]*d[5mC]*dG*d[5mC]*dG*dG*dG*dT*dG*d[5mC]*d[5mC]*kG*kG*kT; antisense) [Compound 716364] | 110 |
| 716403 (k[5mC]*k[5mC]*kG*dG*dG*dA*dG*dA*dA*dG*dA*d[5mC]*dA*k[5mC]*kT*kG; antisense) [Compound 716403] | 110 |
| 716529 (antisense k[5mC]*kA*kA*dA*d[5mC]*dT*d[5mC]*dA*dA*dA*dA*dA*dG*kG*kG*kA) [Compound 716529] | 61 |

same assay, conditions: Table 5; A-431 cells, 5,000 cells per well, free uptake, 2,000 nM modified oligonucleotide, approx. 48 hours; RTS4814; normalized to RIBOGREEN; Yap1 mRNA relative to untreated control cells

| Substance | YAP1 (% UTC) |
| --- | --- |
| 716365 (kT*k[5mC]*kT*dG*dA*dT*dG*d[5mC]*d[5mC]*d[5mC]*dG*dG*d[5mC]*kG*kG*kG; antisense) [Compound 716365] | 83 |
| 716377 (kG*kG*kT*dA*dT*d[5mC]*dT*d[5mC]*dA*dA*dA*dA*dG*kA*kA*kG; antisense) [Compound 716377] | 76 |
| 716356 (k[5mC]*kG*kA*dG*dG*dT*dG*dG*dA*dG*dA*dA*dG*k[5mC]*kG*kG; antisense) [Compound 716356] | 112 |

same assay, conditions: Table 6; A-431 cells, 5,000 cells per well, free uptake, 2,000 nM modified oligonucleotide, approx. 48 hours; RTS4814; normalized to RIBOGREEN; Yap1 mRNA relative to untreated control cells

| Substance | YAP1 (% UTC) |
| --- | --- |
| 716486 (kA*kT*k[5mC]*dA*dT*dG*dA*dT*dT*dA*dT*d[5mC]*dT*k[5mC]*kT*kA; antisense) [Compound 716486] | 68 |
| 716507 (antisense kA*k[5mC]*kT*dA*d[5mC]*dT*d[5mC]*dT*dA*dA*dA*dA*d[5mC]*kT*k[5mC]*k[5mC]) [Compound 716507] | 53 |

same assay, conditions: Table 18; A-431 cells, 5,000 cells per well, free uptake, 2,000 nM modified oligonucleotide, approx. 48 hours; RTS4814; normalized to RIBOGREEN; Yap1 mRNA as percent of untreated control

| Substance | YAP1 (% UTC) |
| --- | --- |
| 1075428 (antisense kT*kA*kT*dA*dT*dA*dA*dG*dG*d[5mC]*dA*dT*d[5mC]*kT*kT*kG) [Compound 1075428] | 53 |

same assay, conditions: Table 19; A-431 cells, 5,000 cells per well, free uptake, 2,000 nM modified oligonucleotide, approx. 48 hours; RTS4814; normalized to RIBOGREEN; Yap1 mRNA as percent of untreated control

| Substance | YAP1 (% UTC) |
| --- | --- |
| 1074693 (antisense k[5mC]*k[5mC]*k[5mC]*d[5mC]*d[5mC]*d[5mC]*d[5mC]*d[5mC]*dA*dA*dA*d[5mC]*dT*kT*kT*k[5mC]) [Compound 1074693] | 92 |
| 1075397 (antisense k[5mC]*kA*kT*dT*dA*dT*d[5mC]*dG*d[5mC]*dA*d[5mC]*dA*dT*kA*k[5mC]*kA) [Compound 1075397] | 79 |
| 1076069 (kT*k[5mC]*kT*dA*dA*dA*dA*dT*dG*dA*d[5mC]*d[5mC]*dT*kT*kA*kG; antisense) [Compound 1076069] | 118 |
| 1074117 (antisense kG*k[5mC]*kG*d[5mC]*d[5mC]*dT*dG*dA*dG*dA*dA*d[5mC]*dT*kT*kT*kT) [Compound 1074117] | 87 |

same assay, conditions: Table 21; Yap1 mRNA, percent of untreated control; 3-10-3 cEt gapmers targeting SEQ ID NO.: 1 and 2

| Substance | YAP1 (% UTC) |
| --- | --- |
| 1075271 (antisense kG*kA*kT*dG*dT*dG*dA*dT*d[5mC]*dT*dG*dT*dG*kA*kG*kA) [Compound 1075271] | 11 |
| 1076263 (kA*kA*kT*dA*dA*d[5mC]*d[5mC]*dA*dA*dG*dT*dG*dA*kG*kT*kT; antisense) [Compound 1076263] | 21 |
| 1074471 (k[5mC]*k[5mC]*k[5mC]*d[5mC]*d[5mC]*d[5mC]*d[5mC]*dA*d[5mC]*d[5mC]*dG*dA*d[5mC]*k[5mC]*k[5mC]*kT; antisense) [Compound 1074471] | 69 |
| 1074183 (antisense k[5mC]*k[5mC]*kG*dG*dT*dT*dG*dA*dG*dG*d[5mC]*dG*dG*k[5mC]*kG*kG) [Compound 1074183] | 90 |

same assay, conditions: Table 22; Yap1 mRNA as percent of untreated control; 3-10-3 cEt gapmers; single dose

| Substance | YAP1 (% UTC) |
| --- | --- |
| 1075560 (kG*k[5mC]*kT*dA*dA*dA*dT*dA*dA*dA*dG*dG*dT*kT*kA*k[5mC]; antisense) [Compound 1075560] | 86 |
| 1076296 (kT*kA*kT*dA*dA*dA*dG*dA*d[5mC]*d[5mC]*d[5mC]*dA*dA*kT*kG*k[5mC]; antisense) [Compound 1076296] | 68 |
| 1075496 (antisense kT*kT*kA*dT*dA*dT*dA*dA*dT*dG*d[5mC]*dA*dG*kG*k[5mC]*kT) [Compound 1075496] | 22 |
| 1074120 (antisense kG*k[5mC]*kG*dA*dG*dG*d[5mC]*dA*d[5mC]*dT*d[5mC]*dG*dG*kA*k[5mC]*k[5mC]) [Compound 1074120] | 50 |

same assay, conditions: Table 23; Yap1 mRNA as percent of untreated control; 3-10-3 cEt gapmers; single dose

| Substance | YAP1 (% UTC) |
| --- | --- |
| 1075721 (kT*kT*kA*dA*dA*dT*dA*d[5mC]*d[5mC]*dT*dT*d[5mC]*dT*kA*kG*k[5mC]; antisense) [Compound 1075721] | 67 |

same assay, conditions: Table 24; Yap1 mRNA as percent of untreated control; 3-10-3 cEt gapmers targeting SEQ ID NO.: 1, and 2

| Substance | YAP1 (% UTC) |
| --- | --- |
| 1075210 (antisense kG*kT*kA*dT*dT*dT*dT*dA*dA*d[5mC]*d[5mC]*dT*dA*kA*kA*k[5mC]) [Compound 1075210] | 100 |
| 1075242 (antisense k[5mC]*kA*kG*dG*dG*dA*dT*dA*dA*dT*dT*dA*d[5mC]*kT*kA*kA) [Compound 1075242] | 7 |

same assay, conditions: Table 25; Yap1 mRNA as percent of untreated control; 3-10-3 cEt gapmers targeting SEQ ID NO.: 1, and 2

| Substance | YAP1 (% UTC) |
| --- | --- |
| 1075243 (antisense k[5mC]*kT*kT*dA*dG*dT*dA*dA*dG*dA*dA*dT*dT*kG*kT*k[5mC]) [Compound 1075243] | 4 |
| 1076459 (antisense k[5mC]*kT*kT*d[5mC]*dA*dA*d[5mC]*dA*dA*dG*dA*d[5mC]*dA*kG*kG*kT) [Compound 1076459] | 4 |
| 1074955 (antisense k[5mC]*k[5mC]*k[5mC]*dG*dG*dG*dT*dT*dT*dT*dT*dG*dT*k[5mC]*kA*kT) [Compound 1074955] | 93 |
| 1076011 (kA*kT*kA*dT*dA*dA*dA*d[5mC]*dA*dA*dT*dA*dG*k[5mC]*kG*kA; antisense) [Compound 1076011] | 61 |
| 1076299 (k[5mC]*kG*kT*dT*dA*dT*dA*dA*dA*dG*dA*d[5mC]*d[5mC]*k[5mC]*kA*kA; antisense) [Compound 1076299] | 3 |
| 1075979 (k[5mC]*kA*kT*dA*dA*dT*d[5mC]*d[5mC]*dA*d[5mC]*dT*dA*dT*kG*k[5mC]*kA; antisense) [Compound 1075979] | 18 |
| 1074795 (k[5mC]*k[5mC]*kA*dA*dA*dT*d[5mC]*dA*dA*dT*dG*dT*dG*k[5mC]*kT*k[5mC]; antisense) [Compound 1074795] | 4 |

same assay, conditions: Table 32; Yap1 mRNA, percent of untreated control; 3-10-3 cEt gapmers targeting SEQ ID NO.: 1, and 2

| Substance | YAP1 (% UTC) |
| --- | --- |
| 1074514 (kA*kA*kG*dG*dA*dT*dA*d[5mC]*dA*dT*dT*d[5mC]*d[5mC]*kA*k[5mC]*kT; antisense) [compound 1074514] | 25 |
| 1074642 (antisense kG*kG*kG*d[5mC]*d[5mC]*dA*dA*dA*dA*dT*dA*d[5mC]*dT*kT*kA*kG) [compound 1074642] | 78 |

same assay, conditions: Table 33; Yap1 mRNA, percent of untreated control; 3-10-3 cEt gapmers targeting SEQ ID NO.: 1, and 2

| Substance | YAP1 (% UTC) |
| --- | --- |
| 1076339 (antisense k[5mC]*kA*kG*d[5mC]*dA*dA*dT*dA*d[5mC]*dT*dG*dT*dG*kG*kG*k[5mC]) [compound 1076339] | 13 |

same assay, conditions: Yap1 mRNA as percent of untreated control; A-431 cells; 3-10-3 cEt gapmers targeting SEQ ID NO.: 1, and 2; Table 30

| Substance | YAP1 (% UTC) |
| --- | --- |
| 1075984 (kT*kA*kT*d[5mC]*dG*dA*dA*dA*dA*dG*d[5mC]*dA*dA*kA*k[5mC]*kT; antisense) [compound 1075984] | 44 |
| 1076272 (kT*kT*kA*dG*dA*dA*d[5mC]*dA*dA*d[5mC]*dT*dA*d[5mC]*kT*kA*k[5mC]; antisense) [compound 1076272] | 53 |
| 1075408 (antisense k[5mC]*kT*kA*dA*dA*dA*dT*dG*dG*d[5mC]*dA*dT*dA*kA*kG*kG) [compound 1075408] | 23 |
| 1075312 (antisense kT*kT*kA*dA*dT*dT*dG*dA*dA*d[5mC]*dT*d[5mC]*dA*kG*kG*kG) [compound 1075312] | 37 |

same assay, conditions: Yap1 mRNA as percent of untreated control; A-431 cells; 3-10-3 cEt gapmers targeting SEQ ID NO.: 1, and 2; Table 31

| Substance | YAP1 (% UTC) |
| --- | --- |
| 1076337 (antisense kA*kT*kT*dA*dA*dA*d[5mC]*d[5mC]*dA*dG*dG*dG*dA*k[5mC]*kT*kG) [compound 1076337] | 25 |
| 1075953 (kA*kA*k[5mC]*d[5mC]*dT*dA*dT*dA*dT*dA*d[5mC]*d[5mC]*dT*kG*k[5mC]*kT; antisense) [compound 1075953] | 36 |
| 1075185 (kG*k[5mC]*k[5mC]*d[5mC]*dA*dA*dG*dA*dA*d[5mC]*dA*d[5mC]*dT*kG*kG*kT; antisense) [compound 1075185] | 78 |
| 1075985 (kA*kT*kA*dT*d[5mC]*dG*dA*dA*dA*dA*dG*d[5mC]*dA*kA*kA*k[5mC]; antisense) [compound 1075985] | 82 |
| 1075121 (kA*kA*kA*dA*dT*dT*dA*dG*d[5mC]*d[5mC]*dT*dA*d[5mC]*k[5mC]*kA*k[5mC]; antisense) [compound 1075121] | 40 |

Source: US11214803B2, “Modulators of YAP1 expression” (Ionis Pharmaceuticals, Inc., priority 2019, dated 2022)
